Measurements reported in PubChem BioAssay AID192 (DTP/NCI, 2004).
Values joined by “and” are separate entries in the source; they are usually repeats but may differ in a detail not shown here. Identical values can stand only once. Inconclusive results and toxic doses are left out. The calls were made as follows: active = survival T/C of 150% or more; inactive = T/C below 125% in these data.

System: BDF1 mice, B16 melanoma ip, median survival T/C
Experiment: NCI In Vivo Anticancer Drug Screen. Data for tumor model B16 Melanoma (intraperitoneal) in B6D2F1 (BDF1) mice
Conditions: endpoint: median survival time, higher = longer survival
In short: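 Survival or tumor size is measured after treatment of tumor-bearing mice and normalised to the vehicle-treated control group.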

[1] = dose: 12.5 mg/kg/injection, schedule: Q01DX009 (ip), vehicle: saline
[2] = dose: 25.0 mg/kg/injection, schedule: Q01DX009 (ip), vehicle: saline
[3] = dose: 50.0 mg/kg/injection, schedule: Q01DX009 (ip), vehicle: saline
[4] = dose: 100.0 mg/kg/injection, schedule: Q01DX009 (ip), vehicle: saline
[5] = dose: 100.0 mg/kg/injection, schedule: Q01DX009 (ip), vehicle: Klucel (hydroxypropylcellulose) (HPC)
[6] = dose: 200.0 mg/kg/injection, schedule: Q01DX009 (ip), vehicle: Klucel (hydroxypropylcellulose) (HPC)
[7] = dose: 400.0 mg/kg/injection, schedule: Q01DX009 (ip), vehicle: Klucel (hydroxypropylcellulose) (HPC)
[8] = dose: 6.25 mg/kg/injection, schedule: Q01DX009 (ip), vehicle: Klucel (hydroxypropylcellulose) (HPC)
[9] = dose: 12.5 mg/kg/injection, schedule: Q01DX009 (ip), vehicle: Klucel (hydroxypropylcellulose) (HPC)
[10] = dose: 25.0 mg/kg/injection, schedule: Q01DX009 (ip), vehicle: Klucel (hydroxypropylcellulose) (HPC)
[11] = dose: 50.0 mg/kg/injection, schedule: Q01DX009 (ip), vehicle: Klucel (hydroxypropylcellulose) (HPC)

Measured: T/C

O=C1C=CC(n2cc(F)c(=O)[nH]c2=O)O1 (stereo not given)
inactive: dose: 6.25 mg/kg/injection, schedule: Q01DX009 (ip), vehicle: saline 97 % of control | [1] 95 % of control | [2] 96 % of control | [3] 107 % of control | [4] 97 % of control

CN1CCC=C(CN(c2ccccc2)c2ccccc2)C1
inactive: [2] 92 % of control | [3] 89 % of control | [4] 92 % of control

Fc1ccc(/C=C2/c3cc(Cl)ccc3-c3c(Cl)cc(Cl)cc32)cc1
inactive: dose: 6.25 mg/kg/injection, schedule: Q01DX009 (ip), vehicle: saline with Tween-80 90 % of control | dose: 12.5 mg/kg/injection, schedule: Q01DX009 (ip), vehicle: saline with Tween-80 90 % of control | dose: 25.0 mg/kg/injection, schedule: Q01DX009 (ip), vehicle: saline with Tween-80 95 % of control

CC(=O)[C@H]1CC[C@H]2[C@@H]3C[C@H](C)C4=CC(=O)CC[C@]4(C)[C@H]3C(=O)C[C@]12C
inactive: [5] 107 % of control | [6] 92 % of control | [7] 94 % of control

Cc1ccc(C(C)(C)C[P+](C)(c2ccccc2)c2ccccc2)cc1
inactive: [8] 90 % of control | [9] 94 % of control | [10] 99 % of control | [11] 93 % of control

Cc1c(Cl)cccc1NC(=O)Nc1ccccc1Cl
inactive: dose: 75.0 mg/kg/injection, schedule: Q01DX009 (ip), vehicle: Klucel (hydroxypropylcellulose) (HPC) 106 % of control | dose: 150.0 mg/kg/injection, schedule: Q01DX009 (ip), vehicle: Klucel (hydroxypropylcellulose) (HPC) 95 % of control

CC(=O)Nc1cc2c(cc1[N+](=O)[O-])-c1ccccc1C2O (stereo not given)
inactive: dose: 50.0 mg/kg/injection, schedule: Q04DX003 (ip), vehicle: saline with Tween-80 105 % of control | dose: 100.0 mg/kg/injection, schedule: Q04DX003 (ip), vehicle: saline with Tween-80 110 % of control | dose: 200.0 mg/kg/injection, schedule: Q04DX003 (ip), vehicle: saline with Tween-80 105 % of control

CC1(c2ccc(O)cc2)CCC(C(C)(C)c2ccc(O)cc2)CC1 (stereo not given)
inactive: [11] 87 % of control | [5] 96 % of control | [6] 91 % of control

COc1cc(NC(=O)CC(C)=O)cc2c(C)cc(=O)n(C)c12
inactive: [5] 96 % of control | [6] 100 % of control | [7] 100 % of control

O=c1[nH]c(=O)n([C@H]2CCCO2)cc1F
inactive: dose: 3.12 mg/kg/injection, schedule: Q01DX009 (ip), vehicle: saline 86 % of control | [9] 98 % of control | [1] 86 % of control | [10] 94 % of control | [2] 100 % of control | [11] 97 % of control | [3] 95 % of control | [5] 102 % of control | [4] 102 % of control and 104 % of control

CC(C)(C)OC(=O)NC(CCC(N)=O)C(=O)ON1C(=O)CCC1=O (stereo not given)
inactive: dose: 50.0 mg/kg/injection, schedule: Q01DX009 (ip), vehicle: saline with Tween-80 100 % of control | dose: 100.0 mg/kg/injection, schedule: Q01DX009 (ip), vehicle: saline with Tween-80 93 % of control | dose: 200.0 mg/kg/injection, schedule: Q01DX009 (ip), vehicle: saline with Tween-80 97 % of control | dose: 400.0 mg/kg/injection, schedule: Q01DX009 (ip), vehicle: saline with Tween-80 86 % of control

CC(COCc1ccccc1)NCc1ccccc1 (stereo not given)
inactive: [10] 96 % of control | [11] 90 % of control

OCCOCCOCCN1CCN(C(c2ccccc2)c2ccc(Cl)cc2)CC1 (stereo not given)
inactive: [1] 108 % of control | [2] 110 % of control | [3] 86 % of control | [4] 86 % of control

O=C(CCCN1CC=C(n2c(=O)[nH]c3ccccc32)CC1)c1ccc(F)cc1
inactive: dose: 3.12 mg/kg/injection, schedule: Q01DX009 (ip), vehicle: Klucel (hydroxypropylcellulose) (HPC) 92 % of control | [8] 92 % of control and 95 % of control | [9] 98 % of control | [10] 90 % of control and 95 % of control | [11] 97 % of control | [5] 93 % of control | [6] 95 % of control
